Laboratory results: PubChem BioAssay (NCI)
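Cultured in 96-well plates, cells were exposed to test compound for 48 hours across five concentrations. Here, GI50 denotes the concentration required for 50% inhibition of growth. TGI marks complete inhibition of growth.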

Legend:
Assay in all cases: NCI anticancer screen, dose series, 48 h
[1] = tested on: HCT-116 colon
[2] = tested on: MDA-MB-231 breast
[3] = tested on: SF-539 CNS
[4] = tested on: K-562 leukemia
[5] = tested on: SK-MEL-2 melanoma
[6] = tested on: CCRF-CEM leukemia
[7] = tested on: RXF 393 renal
[8] = tested on: SN12C renal
[9] = tested on: UO-31 renal
[10] = tested on: T-47D breast

| Compound | TGI [1] [µM] | TGI [2] [µM] | TGI [3] [µM] | TGI [4] [µM] | TGI [5] [µM] | TGI [6] [µM] | TGI [7] [µM] | TGI [8] [µM] | TGI [9] [µM] | TGI [10] [µM] | GI50 [2] [µM] | GI50 [3] [µM] | GI50 [5] [µM] | GI50 [7] [µM] | GI50 [9] [µM] |
| --- | --- | --- | --- | --- | --- | --- | --- | --- | --- | --- | --- | --- | --- | --- | --- |
| O=C1NCC(NC(=O)C(F)(F)F)c2c(Br)sc(Br)c21 (configuration not stated) | > 100 | > 100 | > 100 | > 100 | > 100 | > 100 | > 100 | > 100 | > 100 | > 100 | – | – | – | – | – |
| O=C(Nc1ccccc1F)c1cc2ccc(O)cc2oc1=Nc1ccccc1F | 4.01 | – | 16.5 | 7.64 | 4.05 | 3.79 | – | – | 3.56 | 4.63 | – | – | – | – | – |
| Nc1nc(Cl)cc(NCC2(CO)CCC(CCc3ccccc3)C2)n1 (configuration not stated) | 21.9 | 33.6 | 33.4 | 41.6 | 34.5 | 40.1 | 29.9 | 31.1 | 33.3 | 30.6 | – | – | – | – | – |
| CCCCNC(=S)N/N=C/c1cccc(C)n1 | 38.8 | > 100 | 96.8 | 44.5 | – | 40.2 | – | > 100 | 78.5 | > 100 | – | – | – | – | – |
| c1ccc2c(c1)c1c(n2CCOCCN2CCOCC2)CCCC1 | > 100 | 47 | > 100 | > 100 | 52.4 | 69.4 | – | – | > 100 | > 100 | – | – | – | – | – |
| CC1CN=C(N(C(=O)Nc2ccc(F)c(Cl)c2)c2ccccc2)S1 (configuration not stated) | 67.8 | 38.9 | > 100 | > 100 | 32.8 | > 100 | – | 49.9 | 98.1 | > 100 | – | – | – | – | – |
| CNc1ncnc2c1cnn2COCC(O)CO (configuration not stated) | > 100 | > 100 | > 100 | > 100 | > 100 | > 100 | > 100 | > 100 | > 100 | > 100 | – | – | – | – | – |
| Cc1cn([C@@H]2C[C@H](CO)[C@@H](O)C2)c(=O)[nH]c1=O | > 100 | – | > 100 | > 100 | > 100 | > 100 | – | > 100 | > 100 | – | – | – | – | – | – |
| N#CC(N=Nc1ccc(Cl)cc1)c1nc2ccccc2o1 (configuration not stated) | > 100 | > 100 | 56.2 | 50.2 | 88.7 | 45.6 | > 100 | > 100 | > 100 | > 100 | – | – | – | – | – |
| CC(C)=CCC/C(C)=C/COC(C)(C)C1=CCC(C)CC1 (configuration not stated) (tested in a mixture with another compound) | > 100 | – | 29.3 | – | – | – | > 100 | > 100 | > 100 | – | – | – | – | – | – |
| Cn1ccnc1C(O)(c1nccn1C)c1nccn1C | – | – | – | – | > 100 | – | > 100 | > 100 | > 100 | – | – | – | – | – | – |
| CSC(=Nc1ccccc1)N(c1ccccc1)c1nc(=[N+](C)C)ss1 | 12 | – | 14.8 | 2.89 | 11.7 | 4.48 | 12.7 | 14.7 | 28.3 | – | – | – | – | – | – |
| CC(C)(C)OC(=O)NCCC(N)=S | > 100 | – | > 100 | > 100 | – | > 100 | > 100 | > 100 | > 100 | > 100 | – | – | – | – | – |
| Cc1ccc(CC[P+](=O)CCc2ccc(C)nc2)cn1 | > 100 | > 100 | > 100 | > 100 | – | > 100 | > 100 | > 100 | – | > 100 | – | – | – | – | – |
| CC(=O)OCC1OC(n2cc(I)c(=O)[nH]c2=O)C(OC(C)=O)C(OC(C)=O)C1OC(C)=O (configuration not stated) | > 100 | – | – | > 100 | > 100 | > 100 | > 100 | > 100 | > 100 | – | – | – | – | – | – |
| O=C1Sc2ccccc2C(=O)N2CSCC12 (configuration not stated) | > 100 | – | > 100 | > 100 | > 100 | > 100 | > 100 | > 100 | > 100 | – | – | – | – | – | – |
| CCOC(=O)C1(C(=O)OCC)COS(=O)OC1 | 31.2 | 35.3 | – | > 100 | – | > 100 | 32.6 | > 100 | > 100 | 50.8 | – | – | – | – | – |
| N#CC1=C(c2ccccc2)NNC(c2ccc(Cl)cc2)CC1=O (configuration not stated) | > 100 | – | – | – | 90.4 | – | > 100 | > 100 | – | – | – | – | – | – | – |
| O=C(Oc1cc(=O)c(OC(=O)c2ccccc2)co1)c1ccccc1 | > 100 | > 100 | > 100 | – | > 100 | – | > 100 | > 100 | > 100 | > 100 | – | – | – | – | – |
| CCOC(=O)c1nc2ccc(C(F)(F)F)cc2nc1Oc1ccc(C#N)cc1 | > 100 | 27.9 | 36.7 | > 100 | 30.5 | > 100 | 37.8 | – | > 100 | > 100 | – | – | – | – | – |
| O=[N+]([O-])c1ccc(/C=C/c2cc(-c3ccccc3)nc3ccc4ccccc4c23)cc1 | > 100 | > 100 | > 100 | > 100 | – | > 100 | > 100 | > 100 | > 100 | – | – | – | – | – | – |
| C/C1=C\CC[C@@]2(C)O[C@@H]2C[C@@H](C2(C)CO2)CC/C(C)=C/CC1 (some centres not stated) | 45.5 | 47.3 | 46 | > 100 | 71.8 | > 100 | – | 33.5 | 55.9 | 78.3 | – | – | – | – | – |
| C[C@]12CC[C@@H]3c4ccc(O)cc4CC[C@H]3[C@@H]1C/C(=C\c1ccncc1)[C@@H]2O | > 100 | 41.2 | – | – | 37.4 | > 100 | 7.73 | > 100 | 52.9 | 13.8 | – | – | – | – | – |
| N=C(N)c1ccc(-c2ccc(-c3cccs3)s2)cc1 | – | 3.28 | 3.09 | – | 32 | – | 35.5 | – | 2.48 | – | 1.64 | 1.65 | 13.4 | 13.9 | 0.978 |
| Nc1nc(N)c(N=O)c(Nc2ccc(Br)cc2)n1 | 37.8 | – | 56.5 | > 100 | 49.6 | > 100 | – | > 100 | – | – | – | – | – | – | – |
